In brackets after ≈: the same amount, converted by molar mass. One block for each compound: values may come before it.
Columns and labels:
[1] = In vivo renal and hepatic toxicity (serum creatinine, ALT, total bilirubin); settings: healthy mice
Protocol: (§1) For in vivo toxicity, renal and hepatic toxicities were evaluated in healthy mice. According to the method of Khan et al., [39], a three-dose regimen of 400 µg formulation/dose/mouse was intraperitoneally given on the 1st, 3rd, and 5th days. Blood samples from different treatment groups were taken as pre-dose (a day before the administration of the formulation) and post-dose (the 6th day of the administration of the formulation). The levels of serum creatinine, ALT, and total bilirubin were evaluated by employing a commercial detection kit. Results are expressed as the mean ± SD of three independent experiments. Moreover, the extent of toxicity of 2C-FL was determined on liver and kidney histopathology.

[2] = Histopathological examination of liver and kidney sections; format: in vivo; settings: healthy mice, H&E, 200X
Protocol: as §1
Briefly, the fixed tissues were dehydrated and embedded in paraffin wax. […] Next, paraffin from the sections was removed by three consecutive washings in xylol. The sections were then […] in series of alcohol grades (70–100%), and, finally, the sections were stained with hematoxylin and eosin and visualized under a light microscope (Olympus CLX 41) at 200X magnification.

[3] = Erythrocyte lysis test (in vitro toxicity); format: cell-based; settings: rabbit erythrocytes (0.2% RBC suspension), pH 7.4, dose of 10 mg/L, 37 °C, read-out: hemolytic ability to erythrocytes (percent hemolysis)
Protocol: The in vitro toxicity of free 2C and 2C-FL was determined using the previously published method of erythrocyte lysis test. Briefly, blood samples from a healthy rabbit were collected in an anticoagulant solution. The samples were centrifuged at 4 °C, the pellet containing erythrocytes was washed with PBS (pH 7.4), and, finally, 50% hematocrit was prepared. […] The hemolytic effects were evaluated by visible spectroscopy at 576 nm, and percent hemolysis was calculated. The 100% hemolytic ability of Triton X-100 was taken as the positive control. Results are expressed as the mean ± SD of three independent experiments.

C. albicans (ATCC 18804) = assay: Minimum inhibitory concentration by broth microdilution; format: cell-based; settings: Candida albicans, ATCC18804, 50% inhibition of growth, RPMI 1640, 24 h, 37 °C, formulation weight for formulations
C. albicans [4] = assay: Annexin-V assay for detecting apoptosis; format: cell-based, Candida albicans; settings: annexin V-FITC/PI flow cytometry
Protocol: The therapeutic effect of 2C-FL against fungal infection was done by detecting the presence of apoptosis markers in C. albicans, as mentioned by Tang et al.. Briefly, 5 × 10^6 colony-forming units (CFU)/mL of C. albicans were grown at 37 °C for 5 h in the RPMI 1640 medium containing 2C-L and 2C-FL, separately. The culture was further incubated for 48 h at 37 °C with shaking at 180 rpm. After harvesting and washing with PBS (pH 7.4), the fungus was digested with a lysis buffer. After digestion, apoptotic cell death was analyzed using an annexin V assay as per the published protocol. The fungal cell suspension was incubated with annexin V-FITC (50 µg/mL) and propidium iodide (PI; 200 µg/mL) in dark for 20 min at room temperature. The apoptotic and necrotic cells were scored by flow cytometry (MACSQuant, Germany).

[5] = Pharmacokinetics in healthy mice; format: in vivo; settings: single dose, formulations 5 mg/kg b.w., free 2C 1 mg/kg b.w.
Protocol: For pharmacokinetic studies, 2C-L and 2C-FL were administered to healthy mice. A single dose of 5 mg/kg body weight (b.w.) of the formulations was injected via the tail vein. Free 2C was administered in a single dose comprising 1 mg/kg b.w. Blood aliquots were collected using a non-mortality model at different periods, and serum was centrifuged out. […] Results are reported as the mean ± SD of three independent experiments.

C. albicans [6] = assay: Survival of C. albicans-infected mice; format: in vivo, Swiss albino mice; settings: 2 mg 2C/kg b.w. for five days
Protocol: The antifungal activity of 2C-FL was determined in a mouse model with C. albicans infection. For infection, healthy mice were infected with an inoculum of 100 µL saline containing 5 × 10^5 CFU of C. albicans per mouse by an intravenous route in the lateral tail vein. One day post-infection, the mice were randomly distributed into six groups (n = 10/group) and treated with formulations (2 mg 2C/kg b.w.) for five days. […] A simultaneous set of experiments was conducted for the survival studies.
The antifungal ability of 2C-FL was also determined by evaluating the survival rate of the treated mice. The study was conducted for 60 days, during which mice were monitored for mortality twice each day and results were scored.

[7] = Determination of 2C dose (LD50) in healthy mice; format: in vivo
Protocol: The dose of 2C for the antifungal treatment in vivo was determined according to the already published report. Five groups (n = 5/group) comprising healthy mice were intraperitoneally injected with different doses of 2C. Mice of the sixth group (control group) were intraperitoneally injected with PBS.

non-cancer cell lines = system: non-cancer cell lines; design: method as in PMID 24513049; settings: cited from earlier work
[8] = design: method as in PMID 26457700; settings: solubility checked earlier; cited from earlier work
[9] = system: Candida albicans ATCC 66027, Candida spp. 12,810 (blood) and Candida spp.; design: method as in PMID 24513049; settings: in vitro, series of substituted thiosemicarbazide derivatives; cited from earlier work
[10] = serum, post-dose, 400 µg formulation/dose/mouse i.p. on days 1, 3, 5

Structure (SMILES): O=C(NNC(=S)Nc1ccc(Cl)cc1)c1ccncc1 [2C]
ALT, Day 6 [1, 10]: 45.1 ± 8.5 U/I | Creatinine, Day 6 [1, 10]: 0.34 ± 0.05 mg% | Total Bilirubin, Day 6 [1, 10]: 0.21 ± 0.07 | ALT, Day 0 ([1]; serum, pre-dose): 40.9 ± 7.3 U/I | Creatinine, Day 0 ([1]; serum, pre-dose): 0.29 ± 0.06 mg% | Total Bilirubin, Day 0 ([1]; serum, pre-dose): 0.15 ± 0.04 | change in serum creatinine, ALT and bilirubin levels versus healthy control ([1]; sixth day): showed an increase | toxic effect on kidney histopathology [2]: prominent toxicity | toxic effect on liver histopathology [2]: focal lytic necrosis and enlarged sinusoids | hemolysis at 1 h, 10 mg/L [3]: 100% | MIC (C. albicans (ATCC 18804)): 0.46 ± 0.05 µg/mL (≈ 1.5 µM) | necrosis (C. albicans [4]): prominent increase | Cmax ([5]; Swiss albino, mouse, plasma, intravenous): 1400 ± 250 ng/mL | clearance ([5]; Swiss albino, mouse, plasma, intravenous, read-out: CL (plasma clearance) (converted)): 1.28 mL/min | AUC0–24 [5]: 0.91 ± 0.17 µg/mL x h | survival of treated mice till the 30th day (C. albicans [6]): 30% | LD50 ([7]; healthy mice, intraperitoneal, mortality after 24 h): 20 mg/kg b.w. | mortality at one-tenth of the LD50 ([7]; mice, 2 mg/kg b.w., three weeks of treatment): did not show any mortality | toxicity to non-cancer cell lines (non-cancer cell lines): minimal toxicity | solubility in water [8]: insoluble in water | anti-Candida activity within the series [9]: most effective one

MIC (C. albicans (ATCC 18804)): 1.26 ± 0.71 µg/mL (≈ 1.79 µM)
Structure (SMILES): CCC(C)n1ncn(-c2ccc(N3CCN(c4ccc(OCC5COC(Cn6cncn6)(c6ccc(Cl)cc6Cl)O5)cc4)CC3)cc2)c1=O (stereo not shown) [Itraconazole, itraconazole, reference compound]
